Data from patent publication US12479847B2 (DANA-FARBER CANCER INSTITUTE, INC., priority 2019, dated 2025).

Columns and labels:
Assay in all cases: KINOMEscan (ScanMAX) kinase profiling
Assay type in all cases: binding
panel of 468 kinases [1] = biological target: T1, panel of 468 kinases (Homo sapiens, UniProt O43283); conditions: LZK; 1 μM; read-out: % control
T1 construct: purchased KINOMEscan (ScanMAX) service
T1 sequence (O43283 1-966): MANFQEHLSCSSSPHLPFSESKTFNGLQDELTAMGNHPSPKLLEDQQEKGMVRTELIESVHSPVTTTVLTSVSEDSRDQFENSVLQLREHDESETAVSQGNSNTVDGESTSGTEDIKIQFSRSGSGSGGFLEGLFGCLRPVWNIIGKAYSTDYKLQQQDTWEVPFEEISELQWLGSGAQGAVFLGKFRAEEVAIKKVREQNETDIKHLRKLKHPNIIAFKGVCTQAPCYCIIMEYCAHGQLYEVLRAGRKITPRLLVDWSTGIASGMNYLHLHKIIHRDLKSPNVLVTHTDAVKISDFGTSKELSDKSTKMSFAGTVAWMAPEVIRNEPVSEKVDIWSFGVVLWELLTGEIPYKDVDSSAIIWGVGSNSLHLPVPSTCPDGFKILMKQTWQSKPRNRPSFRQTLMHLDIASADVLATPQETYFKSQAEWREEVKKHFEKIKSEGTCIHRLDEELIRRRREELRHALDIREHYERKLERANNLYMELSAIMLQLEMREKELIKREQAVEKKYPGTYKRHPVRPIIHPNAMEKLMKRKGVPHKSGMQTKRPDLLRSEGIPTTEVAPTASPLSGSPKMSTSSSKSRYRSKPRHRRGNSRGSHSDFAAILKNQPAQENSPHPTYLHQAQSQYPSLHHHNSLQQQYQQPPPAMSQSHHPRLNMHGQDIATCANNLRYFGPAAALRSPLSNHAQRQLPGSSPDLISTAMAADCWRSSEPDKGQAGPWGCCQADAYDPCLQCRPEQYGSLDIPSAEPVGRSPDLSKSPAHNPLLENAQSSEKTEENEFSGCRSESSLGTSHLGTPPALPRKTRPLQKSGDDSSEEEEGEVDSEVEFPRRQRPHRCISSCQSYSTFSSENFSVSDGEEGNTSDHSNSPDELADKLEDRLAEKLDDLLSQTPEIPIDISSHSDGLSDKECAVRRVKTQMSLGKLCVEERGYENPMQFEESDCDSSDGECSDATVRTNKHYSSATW

panel of 468 kinases [2] = biological target: T2, panel of 468 kinases (Homo sapiens, UniProt O95747); conditions: OSR1; 1 μM; read-out: % control
T2 construct: purchased KINOMEscan (ScanMAX) service
T2 sequence (O95747 whole entry): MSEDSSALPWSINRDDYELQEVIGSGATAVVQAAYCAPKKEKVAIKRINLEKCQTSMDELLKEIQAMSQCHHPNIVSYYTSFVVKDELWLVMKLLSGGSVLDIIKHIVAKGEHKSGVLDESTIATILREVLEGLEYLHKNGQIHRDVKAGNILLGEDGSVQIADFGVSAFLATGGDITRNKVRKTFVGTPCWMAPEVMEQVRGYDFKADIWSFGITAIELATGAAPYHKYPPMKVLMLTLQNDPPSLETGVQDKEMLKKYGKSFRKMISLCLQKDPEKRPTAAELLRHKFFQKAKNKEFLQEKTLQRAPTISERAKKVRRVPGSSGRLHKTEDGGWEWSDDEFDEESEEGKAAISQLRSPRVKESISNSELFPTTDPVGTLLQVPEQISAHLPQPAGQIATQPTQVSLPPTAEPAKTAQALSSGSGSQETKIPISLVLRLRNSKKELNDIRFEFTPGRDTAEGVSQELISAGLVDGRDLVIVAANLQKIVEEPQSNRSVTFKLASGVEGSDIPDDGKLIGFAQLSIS

panel of 468 kinases [3] = biological target: T3, panel of 468 kinases (Homo sapiens, UniProt P21860); conditions: ERBB3; 1 μM; read-out: % control
T3 construct: purchased KINOMEscan (ScanMAX) service
T3 sequence (P21860 20-1342): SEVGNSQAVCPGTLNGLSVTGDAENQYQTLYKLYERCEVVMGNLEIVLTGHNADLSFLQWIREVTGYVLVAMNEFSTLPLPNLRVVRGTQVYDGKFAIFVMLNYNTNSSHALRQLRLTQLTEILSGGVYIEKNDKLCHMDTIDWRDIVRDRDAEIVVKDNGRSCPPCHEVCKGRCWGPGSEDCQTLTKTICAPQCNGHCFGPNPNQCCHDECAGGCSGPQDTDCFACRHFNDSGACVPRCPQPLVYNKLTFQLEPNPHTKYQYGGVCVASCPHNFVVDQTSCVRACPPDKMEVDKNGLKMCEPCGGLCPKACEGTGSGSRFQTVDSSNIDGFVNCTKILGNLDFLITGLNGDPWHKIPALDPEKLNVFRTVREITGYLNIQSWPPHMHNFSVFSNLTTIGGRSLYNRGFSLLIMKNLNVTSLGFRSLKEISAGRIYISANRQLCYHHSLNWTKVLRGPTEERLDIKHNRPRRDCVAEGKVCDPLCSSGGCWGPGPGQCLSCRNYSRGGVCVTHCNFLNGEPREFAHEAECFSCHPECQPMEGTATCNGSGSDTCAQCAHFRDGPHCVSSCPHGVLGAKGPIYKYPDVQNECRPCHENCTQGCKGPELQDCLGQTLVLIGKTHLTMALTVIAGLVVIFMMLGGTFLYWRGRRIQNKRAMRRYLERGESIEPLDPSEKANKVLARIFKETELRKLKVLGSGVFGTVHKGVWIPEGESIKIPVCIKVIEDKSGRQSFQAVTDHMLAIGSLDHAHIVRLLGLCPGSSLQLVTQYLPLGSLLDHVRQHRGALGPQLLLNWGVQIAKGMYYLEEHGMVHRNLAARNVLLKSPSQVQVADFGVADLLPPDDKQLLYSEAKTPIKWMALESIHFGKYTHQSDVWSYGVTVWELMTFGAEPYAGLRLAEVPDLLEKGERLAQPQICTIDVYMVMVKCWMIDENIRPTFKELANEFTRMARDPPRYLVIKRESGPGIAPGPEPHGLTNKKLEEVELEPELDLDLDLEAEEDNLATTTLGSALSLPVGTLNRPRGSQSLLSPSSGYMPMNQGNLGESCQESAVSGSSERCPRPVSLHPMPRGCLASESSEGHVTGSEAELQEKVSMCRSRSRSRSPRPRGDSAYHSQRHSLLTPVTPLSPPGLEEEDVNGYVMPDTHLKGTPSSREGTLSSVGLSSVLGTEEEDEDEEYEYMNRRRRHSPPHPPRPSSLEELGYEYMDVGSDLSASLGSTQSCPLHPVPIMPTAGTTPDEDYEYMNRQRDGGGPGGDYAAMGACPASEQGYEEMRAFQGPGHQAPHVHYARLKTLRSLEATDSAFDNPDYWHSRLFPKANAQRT

panel of 468 kinases [4] = biological target: T4, panel of 468 kinases (Homo sapiens, UniProt P35968); conditions: VEGFR2; 1 μM; read-out: % control
T4 construct: purchased KINOMEscan (ScanMAX) service
T4 sequence (P35968 20-1356): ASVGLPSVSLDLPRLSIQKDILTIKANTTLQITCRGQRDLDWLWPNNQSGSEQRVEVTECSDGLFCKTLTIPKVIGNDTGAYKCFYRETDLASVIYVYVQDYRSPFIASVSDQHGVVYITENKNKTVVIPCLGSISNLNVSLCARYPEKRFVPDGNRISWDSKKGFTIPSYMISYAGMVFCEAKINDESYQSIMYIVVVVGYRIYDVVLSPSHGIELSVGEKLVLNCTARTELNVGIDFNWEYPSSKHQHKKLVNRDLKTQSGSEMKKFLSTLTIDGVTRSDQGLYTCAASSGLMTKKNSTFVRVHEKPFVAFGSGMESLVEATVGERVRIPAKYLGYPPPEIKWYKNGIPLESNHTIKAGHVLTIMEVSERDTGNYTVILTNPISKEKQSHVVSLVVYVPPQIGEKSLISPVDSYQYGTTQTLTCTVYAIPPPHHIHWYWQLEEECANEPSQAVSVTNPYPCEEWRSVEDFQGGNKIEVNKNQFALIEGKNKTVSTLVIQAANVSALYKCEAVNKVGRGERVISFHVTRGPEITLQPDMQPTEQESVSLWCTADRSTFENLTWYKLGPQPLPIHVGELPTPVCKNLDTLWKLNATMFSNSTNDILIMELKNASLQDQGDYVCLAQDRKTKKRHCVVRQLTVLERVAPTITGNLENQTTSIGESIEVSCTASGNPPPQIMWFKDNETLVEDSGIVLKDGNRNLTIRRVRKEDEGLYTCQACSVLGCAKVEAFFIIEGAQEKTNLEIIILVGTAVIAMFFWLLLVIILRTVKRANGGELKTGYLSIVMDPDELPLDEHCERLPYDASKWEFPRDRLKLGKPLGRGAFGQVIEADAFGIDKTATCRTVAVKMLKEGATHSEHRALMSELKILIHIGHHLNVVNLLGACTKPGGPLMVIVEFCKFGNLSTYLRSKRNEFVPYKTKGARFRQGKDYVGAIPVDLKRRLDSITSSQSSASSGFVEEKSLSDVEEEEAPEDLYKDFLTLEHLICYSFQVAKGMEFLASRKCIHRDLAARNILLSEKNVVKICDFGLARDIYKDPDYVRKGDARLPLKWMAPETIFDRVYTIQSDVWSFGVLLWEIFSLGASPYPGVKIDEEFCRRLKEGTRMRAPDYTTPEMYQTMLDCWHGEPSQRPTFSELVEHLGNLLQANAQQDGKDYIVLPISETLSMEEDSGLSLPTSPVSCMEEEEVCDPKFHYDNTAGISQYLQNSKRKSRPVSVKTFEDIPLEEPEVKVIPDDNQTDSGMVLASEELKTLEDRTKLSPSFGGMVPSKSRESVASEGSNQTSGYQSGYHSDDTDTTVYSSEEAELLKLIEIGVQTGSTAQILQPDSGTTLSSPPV

panel of 468 kinases [5] = biological target: T5, panel of 468 kinases (Homo sapiens, UniProt Q6XUX3); conditions: RIPK5; 1 μM; read-out: % control
T5 construct: purchased KINOMEscan (ScanMAX) service
T5 sequence (Q6XUX3 1-929): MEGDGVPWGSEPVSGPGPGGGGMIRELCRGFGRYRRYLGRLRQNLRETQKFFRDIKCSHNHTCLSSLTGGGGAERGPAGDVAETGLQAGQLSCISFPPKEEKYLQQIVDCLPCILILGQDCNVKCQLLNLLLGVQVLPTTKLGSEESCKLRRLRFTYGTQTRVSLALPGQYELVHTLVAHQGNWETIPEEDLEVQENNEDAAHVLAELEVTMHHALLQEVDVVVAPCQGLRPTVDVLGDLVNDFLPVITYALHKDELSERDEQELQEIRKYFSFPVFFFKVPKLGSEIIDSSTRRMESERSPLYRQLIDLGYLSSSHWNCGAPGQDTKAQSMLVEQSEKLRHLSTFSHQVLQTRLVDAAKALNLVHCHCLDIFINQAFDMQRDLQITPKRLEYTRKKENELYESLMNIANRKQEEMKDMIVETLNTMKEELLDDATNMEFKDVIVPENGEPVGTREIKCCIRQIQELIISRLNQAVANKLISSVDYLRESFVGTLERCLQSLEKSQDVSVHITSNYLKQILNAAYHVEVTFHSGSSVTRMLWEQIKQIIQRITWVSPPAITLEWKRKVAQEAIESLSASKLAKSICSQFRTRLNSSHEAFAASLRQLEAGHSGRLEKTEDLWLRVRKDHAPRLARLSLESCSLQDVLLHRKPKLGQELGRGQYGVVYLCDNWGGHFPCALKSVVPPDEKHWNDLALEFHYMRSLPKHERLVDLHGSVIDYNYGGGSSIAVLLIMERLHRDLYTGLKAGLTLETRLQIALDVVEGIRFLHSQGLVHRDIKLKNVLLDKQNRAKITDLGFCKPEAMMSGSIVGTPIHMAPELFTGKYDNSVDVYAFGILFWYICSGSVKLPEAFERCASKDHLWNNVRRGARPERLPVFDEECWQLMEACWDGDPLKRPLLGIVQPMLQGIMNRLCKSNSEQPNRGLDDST

panel of 468 kinases [6] = biological target: T6, panel of 468 kinases (Homo sapiens, UniProt Q99640); conditions: PKMYT1; 1 μM; read-out: % control
T6 construct: purchased KINOMEscan (ScanMAX) service
T6 sequence (Q99640 1-499): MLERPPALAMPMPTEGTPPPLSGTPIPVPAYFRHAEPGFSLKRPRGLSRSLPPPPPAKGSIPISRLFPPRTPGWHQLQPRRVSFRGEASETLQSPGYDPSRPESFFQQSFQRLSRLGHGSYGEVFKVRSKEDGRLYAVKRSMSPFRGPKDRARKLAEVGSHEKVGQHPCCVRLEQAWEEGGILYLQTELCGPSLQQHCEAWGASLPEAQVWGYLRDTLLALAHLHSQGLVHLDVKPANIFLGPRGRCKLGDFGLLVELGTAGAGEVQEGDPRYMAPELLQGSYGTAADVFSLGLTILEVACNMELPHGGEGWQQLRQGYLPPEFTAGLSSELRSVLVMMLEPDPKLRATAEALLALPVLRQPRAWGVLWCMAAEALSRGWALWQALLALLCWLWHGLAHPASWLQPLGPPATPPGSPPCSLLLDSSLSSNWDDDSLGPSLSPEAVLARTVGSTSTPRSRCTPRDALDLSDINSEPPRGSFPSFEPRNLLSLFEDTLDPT

SMILES | remaining binding at 1 µM (panel of 468 kinases [1]) [%] | remaining binding at 1 µM (panel of 468 kinases [2]) [%] | remaining binding at 1 µM (panel of 468 kinases [3]) [%] | remaining binding at 1 µM (panel of 468 kinases [4]) [%] | remaining binding at 1 µM (panel of 468 kinases [5]) [%] | remaining binding at 1 µM (panel of 468 kinases [6]) [%]
CNc1nc(Nc2ccc(S(=O)(=O)N3CCC(N4CCOCC4)CC3)cc2OC)nc2[nH]cc(Cl)c12 [Compound 12, 5-chloro-N2-(2-methoxy-4-((4-morpholinopiperidin-1-yl)sulfonyl)phenyl)-N4-methyl-7H-pyrrolo[2,3-d]pyrimidine-2,4-diamine] | 63 | 31 | 38 | 91 | 23 | 100
CNc1nc(Nc2ccc(C(=O)N3CCC(N4CCOCC4)CC3)c3c2OCO3)nc2[nH]cc(Cl)c12 [Compound 75, (7-((5-chloro-4-(methylamino)-7H-pyrrolo[2,3-d]pyrimidin-2-yl)amino)benzo[d][1,3]dioxol-4-yl)(4-morpholinopiperidin-1-yl)methanone] | 57 | 24 | 38 | 54 | 9.9 | 100
CNc1nc(Nc2ccc(P3(=O)CCN(C4CCOCC4)CC3)cc2OC)nc2[nH]cc(Cl)c12 [Compound 77, 4-(4-((5-chloro-4-(methylamino)-7H-pyrrolo[2,3-d]pyrimidin-2-yl)amino)-3-methoxyphenyl)-1-(tetrahydro-2H-pyran-4-yl)-1,4-azaphosphinane 4-oxide] | 62 | 10 | 35 | 91 | 20 | 100
